The text below walks through data of the supplement of paper PMC10307832.

Holding throughout (assay): relative viability (nuclei count vs DMSO), 5 days (fraction); higher = more cells survive
Compound in the assay “FG-4592 + Pemetrexed”: Cc1nc(C(=O)NCC(=O)O)c(O)c2ccc(Oc3ccccc3)cc12 [FG-4592] + Nc1nc2[nH]cc(CCc3ccc(C(=O)N[C@@H](CCC(=O)O)C(=O)O)cc3)c2c(=O)[nH]1 [Pemetrexed] (partner 0.2 µM)
A digest of the protocol: (§1)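 After 5 days of treatment, lung cancer cells in 1536-well plates were fixed and stained in a single step (final 0.05% Triton X-100, 1% formaldehyde, 1 ug/ml Hoechst) and their nuclei counted on 4× images. Treatment had been applied by pin tool the day after seeding as one drug alone or as a fixed anchor-drug dose with five library-drug doses (not always all listed) in √10 steps. Relative viability is the nuclei count of treated wells divided by that of vehicle wells, and values are medians of duplicate plates.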

Compound in the assay “FG-4592 + Bortezomib”: Cc1nc(C(=O)NCC(=O)O)c(O)c2ccc(Oc3ccccc3)cc12 [FG-4592] + CC(C)C[C@H](NC(=O)[C@H](Cc1ccccc1)NC(=O)c1cnccn1)B(O)O [Bortezomib] (partner 0.002 µM)
A digest of the protocol:
as §1

Compound in the assay “IU1-47 + Trametinib”: CC1=CC(=C(N1C2=CC=C(C=C2)Cl)C)C(=O)CN3CCCCC3 [IU1-47] + CC(=O)Nc1cccc(-n2c(=O)n(C3CC3)c(=O)c3c(Nc4ccc(I)cc4F)n(C)c(=O)c(C)c32)c1 [Trametinib] (partner 0.02 µM)
A digest of the protocol: as §1

Compound in the assay “FG-4592 + Luminespib”: Cc1nc(C(=O)NCC(=O)O)c(O)c2ccc(Oc3ccccc3)cc12 [FG-4592] + CCNC(=O)c1noc(-c2cc(C(C)C)c(O)cc2O)c1-c1ccc(CN2CCOCC2)cc1 [Luminespib] (partner 0.01 µM)
The essentials: as §1

Regarding UMC-11, the relative viability worked out at 0.738 with FG-4592 + Pemetrexed (first compound 0.08 µM); 0.867 in the assay with FG-4592 + Pemetrexed (first compound 0.253 µM); 0.843 with FG-4592 + Pemetrexed (first compound 0.8 µM); 0.791 with FG-4592 + Pemetrexed (first compound 2.53 µM); 0.688 with FG-4592 + Pemetrexed (first compound 8 µM); 0.752 with FG-4592 + Bortezomib (first compound 0.08 µM). Besides, the relative viability with FG-4592 + Bortezomib (first compound 0.253 µM) is 0.771; in the assay with FG-4592 + Bortezomib (first compound 0.8 µM), 0.633; with FG-4592 + Bortezomib (first compound 2.53 µM), 0.75; with FG-4592 + Bortezomib (first compound 8 µM), 0.692; with IU1-47 + Trametinib (first compound 0.08 µM), 0.681; with IU1-47 + Trametinib (first compound 0.253 µM) it was 0.681. In addition, the relative viability is 0.748 with IU1-47 + Trametinib (first compound 0.8 µM); 0.741 with IU1-47 + Trametinib (first compound 2.53 µM); 0.664 with IU1-47 + Trametinib (first compound 8 µM); 0.957 with FG-4592 + Luminespib (first compound 0.08 µM); 0.944 with FG-4592 + Luminespib (first compound 0.253 µM); 1.01 with FG-4592 + Luminespib (first compound 0.8 µM). For the same cell line, the relative viability with FG-4592 + Luminespib (first compound 2.53 µM) is 0.995; with FG-4592 + Luminespib (first compound 8 µM) it was 0.778.
